35 compounds from patent US20170240556A1, “BIFLUORODIOXALANE-AMINO-BENZIMIDAZOLE KINASE INHIBITORS FOR THE TREATMENT OF CANCER, AUTOIMMUNEINFLAMMATION AND CNS DISORDERS” (4SC DISCOVERY GMBH, priority 2012, published 2017) can be followed below.

Casein kinase 1 delta (CSKN1D), sequence (P48730 whole entry): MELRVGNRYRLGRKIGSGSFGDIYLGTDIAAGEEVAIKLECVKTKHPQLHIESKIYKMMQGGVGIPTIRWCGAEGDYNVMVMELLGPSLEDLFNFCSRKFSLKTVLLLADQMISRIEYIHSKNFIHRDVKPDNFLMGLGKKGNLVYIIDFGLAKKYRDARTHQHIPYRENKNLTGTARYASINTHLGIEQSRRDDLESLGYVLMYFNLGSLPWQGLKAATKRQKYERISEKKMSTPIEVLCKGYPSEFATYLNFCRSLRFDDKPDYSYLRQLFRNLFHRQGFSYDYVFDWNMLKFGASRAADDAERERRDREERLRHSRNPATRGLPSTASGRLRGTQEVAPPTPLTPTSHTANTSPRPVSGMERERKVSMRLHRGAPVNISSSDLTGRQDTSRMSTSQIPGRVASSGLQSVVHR

The target of the assay is Casein kinase 1 delta (CSKN1D) (Homo sapiens, UniProt P48730). The assay is described as follows: Casein kinase assay, CK1 delta. As to conditions: recombinant CSKN1D 5 nM, ATP 10 μM. Format: biochemical. As for the experimental part:
The recombinant protein Casein kinase 1 delta (CSKN1D) was added to the substrate solution in a concentration of 5 nM and gently mixed. Dilution series in of compounds of the present invention in DMSO were added to the reaction mixture, followed after 20 min by addition of a mixture of ATP and ^33P-ATP (specific activity 0.01 μCi/μl final) to a final concentration of 10 μM. Reactions were carried out at 25° C. for 120 min, followed by spotting the reactions onto P81 ion exchange filter paper. Unbound phosphate was removed by washing of the filters in 0.75% phosphoric acid. […] IC50 values and curve fits were obtained using the program Prism® (Graph Pad Software).
Take `O=C(Nc1nc2cc3c(cc2[nH]1)OC(F)(F)O3)c1ccc(F)cc1` [Compound 119, N-(2,2-difluoro-5H-[1,3]dioxolo[4′,5′:4,5]benzo[1,2-d]imidazol-6-yl)-4-fluorobenzamide]: the concentration for half-maximal inhibition (IC50) (commonly the midpoint of a concentration-inhibition curve) fell in the range of 200 to 1000 nM.

As to `N#Cc1cccc(C(=O)Nc2nc3cc4c(cc3[nH]2)OC(F)(F)O4)c1` [Compound 116, 3-cyano-N-(2,2-difluoro-5H-[1,3]dioxolo[4′,5′:4,5]benzo[1,2-d]imidazol-6-yl)benzamide], the IC50 is under 200 nM.

For the compound `O=C(Nc1nc2cc3c(cc2[nH]1)OC(F)(F)O3)c1csc(-c2cccc(OC(F)(F)F)c2)n1` [Compound 19B], the IC50 lay within 200 to 1000 nM.

In the case of `Nc1ccc(C(=O)Nc2nc3cc4c(cc3[nH]2)OC(F)(F)O4)cc1C(F)(F)F` [Compound 126, 4-amino-N-(2,2-difluoro-5H-[1,3]dioxolo[4′,5′:4,5]benzo[1,2-d]imidazol-6-yl)-3-(trifluoromethyl)benzamide], the IC50 is under 200 nM.

As for `O=C(Nc1nc2cc3c(cc2[nH]1)OC(F)(F)O3)c1ccc([N+](=O)[O-])s1` [Compound 63, N-(2,2-difluoro-5H-[1,3]dioxolo[4′,5′:4,5]benzo[1,2-d]imidazol-6-yl)-5-nitrothiophene-2-carboxamide], the IC50 lay in the range of 200 to 1000 nM.

Take `Cc1cc(C(=O)Nc2nc3cc4c(cc3[nH]2)OC(F)(F)O4)nn1C` [Compound 146, N-(2,2-difluoro-5H-[1,3]dioxolo[4′,5′:4,5]benzo[1,2-d]imidazol-6-yl)-1,5-dimethyl-1H-pyrazole-3-carboxamide]: the IC50 is over 1000 nM.

With `O=C(Nc1nc2cc3c(cc2[nH]1)OC(F)(F)O3)c1cccnc1` [Compound 78, N-(2,2-difluoro-5H-[1,3]dioxolo[4′,5′:4,5]benzo[1,2-d]imidazol-6-yl)nicotinamide], the IC50 was under 200 nM.

On to `Cn1cc(C(=O)Nc2nc3cc4c(cc3[nH]2)OC(F)(F)O4)cn1` [Compound 13B, N-(2,2-difluoro-5H-[1,3]dioxolo[4′,5′:4,5]benzo[1,2-d]imidazol-6-yl)-1-methyl-1H-pyrazole-4-carboxamide], for which the IC50 is under 200 nM.

On to `COc1ccnc(C(=O)Nc2nc3cc4c(cc3[nH]2)OC(F)(F)O4)c1` [Compound 26B], for which the IC50 was over 1000 nM.

For `CCN(CC)c1ccc(C(=O)Nc2nc3cc4c(cc3[nH]2)OC(F)(F)O4)cc1` [Compound 74, 4-(diethylamino)-N-(2,2-difluoro-5H-[1,3]dioxolo[4′,5′:4,5]benzo[1,2-d]imidazol-6-yl)benzamide], the IC50 was in the range of 200 to 1000 nM.

For the compound `O=C(Nc1nc2cc3c(cc2[nH]1)OC(F)(F)O3)c1ccc([N+](=O)[O-])cc1` [Compound 58, N-(2,2-difluoro-5H-[1,3]dioxolo[4′,5′:4,5]benzo[1,2-d]imidazol-6-yl)-4-nitrobenzamide], the IC50 lay within 200 to 1000 nM.

Consider `Cc1cc(C(=O)Nc2nc3cc4c(cc3[nH]2)OC(F)(F)O4)no1` [Compound 145, N-(2,2-difluoro-5H-[1,3]dioxolo[4′,5′:4,5]benzo[1,2-d]imidazol-6-yl)-5-methylisoxazole-3-carboxamide], for which the IC50 is over 1000 nM.

On to `COc1cncc(C(=O)Nc2nc3cc4c(cc3[nH]2)OC(F)(F)O4)c1` [Compound 123, N-(2,2-difluoro-5H-[1,3]dioxolo[4′,5′:4,5]benzo[1,2-d]imidazol-6-yl)-5-methoxynicotinamide], for which the IC50 was under 200 nM.

Consider `Nc1ccc(C(=O)Nc2nc3cc4c(cc3[nH]2)OC(F)(F)O4)cc1` [Compound 60, 4-amino-N-(2,2-difluoro-5H-[1,3]dioxolo[4′,5′:4,5]benzo[1,2-d]imidazol-6-yl)benzamide], for which the IC50 is under 200 nM.

Regarding `O=C(Nc1nc2cc3c(cc2[nH]1)OC(F)(F)O3)c1ccc(Cl)c(Cl)c1` [Compound 109, 3,4-dichloro-N-(2,2-difluoro-5H-[1,3]dioxolo[4′,5′:4,5]benzo[1,2-d]imidazol-6-yl)benzamide], the half-maximal inhibitory concentration (IC50) lay within 200 to 1000 nM.

Take `Nc1ccc(C(=O)Nc2nc3cc4c(cc3[nH]2)OC(F)(F)O4)cc1F` [Compound 127, 4-amino-N-(2,2-difluoro-5H-[1,3]dioxolo[4′,5′:4,5]benzo[1,2-d]imidazol-6-yl)-3-fluorobenzamide]: the IC50 is 200 to 1000 nM.

For `N#Cc1ccc(C(=O)Nc2nc3cc4c(cc3[nH]2)OC(F)(F)O4)c(F)c1` [Compound 93, 4-cyano-N-(2,2-difluoro-5H-[1,3]dioxolo[4′,5′:4,5]benzo[1,2-d]imidazol-6-yl)-2-fluorobenzamide], the IC50 is over 1000 nM.

Consider `O=C(Nc1nc2cc3c(cc2[nH]1)OC(F)(F)O3)c1ccnc(N2CCSCC2)c1` [Compound 14B, N-(2,2-difluoro-5H-[1,3]dioxolo[4′,5′:4,5]benzo[1,2-d]imidazol-6-yl)-2-thiomorpholinoisonicotinamide], for which the IC50 was under 200 nM.

Consider `O=C(Nc1nc(C(=O)Nc2nc3cc4c(cc3[nH]2)OC(F)(F)O4)ns1)c1ccsc1` [Compound 10B, N-(2,2-difluoro-5H-[1,3]dioxolo[4′,5′:4,5]benzo[1,2-d]imidazol-6-yl)-5-(thiophene-3-carboxamido)-1,2,4-thiadiazole-3-carboxamide], for which the IC50 is under 200 nM.

Take `O=C(Nc1nc2cc3c(cc2[nH]1)OC(F)(F)O3)c1ccno1` [Compound 72, N-(2,2-difluoro-5H-[1,3]dioxolo[4′,5′:4,5]benzo[1,2-d]imidazol-6-yl)isoxazole-5-carboxamide]: the IC50 is 200 to 1000 nM.

Consider `O=C(Nc1nc2cc3c(cc2[nH]1)OC(F)(F)O3)c1cccc(C(F)(F)F)c1` [Compound 66, N-(2,2-difluoro-5H-[1,3]dioxolo[4′,5′:4,5]benzo[1,2-d]imidazol-6-yl)-3-(trifluoromethyl)benzamide], for which the IC50 was under 200 nM.

Turning to `O=C(Nc1nc2cc3c(cc2[nH]1)OC(F)(F)O3)c1cncc(-c2cccs2)c1` [Compound 23B, N-(2,2-difluoro-5H-[1,3]dioxolo[4′,5′:4,5]benzo[1,2-d]imidazol-6-yl)-5-(thiophen-2-yl)nicotinamide], the IC50 was under 200 nM.

As to `O=C(Nc1nc2cc3c(cc2[nH]1)OC(F)(F)O3)c1cnco1` [Compound 71, N-(2,2-difluoro-5H-[1,3]dioxolo[4′,5′:4,5]benzo[1,2-d]imidazol-6-yl)oxazole-5-carboxamide], the IC50 fell in the range of 200 to 1000 nM.

In the case of `O=C(Nc1nc2cc3c(cc2[nH]1)OC(F)(F)O3)c1ccc(NCc2ccccc2)cc1` [Compound 76, 4-(benzylamino)-N-(2,2-difluoro-5H-[1,3]dioxolo[4′,5′:4,5]benzo[1,2-d]imidazol-6-yl)benzamide], the IC50 is under 200 nM.

With `O=C(Nc1nc2cc3c(cc2[nH]1)OC(F)(F)O3)c1ccc2ccccc2n1` [Compound 59, N-(2,2-difluoro-5H-[1,3]dioxolo[4′,5′:4,5]benzo[1,2-d]imidazol-6-yl)quinoline-2-carboxamide], the IC50 was over 1000 nM.

Consider `CC(=O)c1cccc(C(=O)Nc2nc3cc4c(cc3[nH]2)OC(F)(F)O4)c1` [Compound 114, 3-acetyl-N-(2,2-difluoro-5H-[1,3]dioxolo[4′,5′:4,5]benzo[1,2-d]imidazol-6-yl)benzamide], for which the IC50 is under 200 nM.

Turning to `CCOC(=O)c1cc(C)n(-c2cccc(C(=O)Nc3nc4cc5c(cc4[nH]3)OC(F)(F)O5)c2)c1C` [Compound 139, ethyl 1-(3-((2,2-difluoro-5H-[1,3]dioxolo[4′,5′:4,5]benzo[1,2-d]imidazol-6-yl)carbamoyl)phenyl)-2,5-dimethyl-1H-pyrrole-3-carboxylate], the IC50 was under 200 nM.

In the case of `Cc1ccc(C(=O)Nc2nc3cc4c(cc3[nH]2)OC(F)(F)O4)cc1` [Compound 107, N-(2,2-difluoro-5H-[1,3]dioxolo[4′,5′:4,5]benzo[1,2-d]imidazol-6-yl)-4-methylbenzamide], the IC50 is over 1000 nM.

In the case of `O=C(Nc1nc2cc3c(cc2[nH]1)OC(F)(F)O3)c1c[nH]cn1` [Compound 103, N-(2,2-difluoro-5H-[1,3]dioxolo[4′,5′:4,5]benzo[1,2-d]imidazol-6-yl)-1H-imidazole-4-carboxamide], the IC50 was in the range of 200 to 1000 nM.

Take `CC(C)(C)c1nc(-c2cccc(C(=O)Nc3nc4cc5c(cc4[nH]3)OC(F)(F)O5)c2)no1` [Compound 132, 3-(5-(tert-butyl)-1,2,4-oxadiazol-3-yl)-N-(2,2-difluoro-5H-[1,3]dioxolo[4′,5′:4,5]benzo[1,2-d]imidazol-6-yl)benzamide]: the IC50 is under 200 nM.

Regarding `O=C(Nc1nc2cc3c(cc2[nH]1)OC(F)(F)O3)c1cccc(-c2nnn[nH]2)c1` [Compound 118, N-(2,2-difluoro-5H-[1,3]dioxolo[4′,5′:4,5]benzo[1,2-d]imidazol-6-yl)-3-(1H-tetrazol-5-yl)benzamide], the 50% inhibitory concentration (IC50) was under 200 nM.

`O=C(Nc1nc2cc3c(cc2[nH]1)OC(F)(F)O3)c1csc(-c2ccc3c(c2)OCCO3)n1` [Compound 82, N-(2,2-difluoro-5H-[1,3]dioxolo[4′,5′:4,5]benzo[1,2-d]imidazol-6-yl)-2-(2,3-dihydrobenzo[b][1,4]dioxin-6-yl)thiazole-4-carboxamide]: the IC50 was under 200 nM.

`CC(C)c1nc(-c2cccc(C(=O)Nc3nc4cc5c(cc4[nH]3)OC(F)(F)O5)c2)no1` [Compound 131, N-(2,2-difluoro-5H-[1,3]dioxolo[4′,5′:4,5]benzo[1,2-d]imidazol-6-yl)-3-(5-isopropyl-1,2,4-oxadiazol-3-yl)benzamide]: the IC50 is under 200 nM.

On to `CN(C)c1ccc(C(=O)Nc2nc3cc4c(cc3[nH]2)OC(F)(F)O4)cc1` [Compound 75, N-(2,2-difluoro-5H-[1,3]dioxolo[4′,5′:4,5]benzo[1,2-d]imidazol-6-yl)-4-(dimethylamino)benzamide], for which the IC50 was under 200 nM.

As for `O=C(Nc1nc2cc3c(cc2[nH]1)OC(F)(F)O3)c1ccc(-n2cnnn2)cc1` [Compound 22B, N-(2,2-difluoro-5H-[1,3]dioxolo[4′,5′:4,5]benzo[1,2-d]imidazol-6-yl)-4-(1H-tetrazol-1-yl)benzamide], the IC50 was under 200 nM.
